# Read-outs that look alike come from different tables or passages of the source.
# Experiments:
# [1] = target: JAK2 kinase domain (JH1) (Homo sapiens (Human), UniProt O60674); assay: JAK2 Radioactive Kinase Assay; assay type: biochemical; details: for inhibition at 10 µM: read-out: JAK2 JH1% Inhibition @ 10 μM
# In short: (§1)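 Single-point screen: 10 μM test compound, radioactive kinase read-out, percent inhibition reported for each kinase domain.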
# [2] = target: Tyk2 kinase domain (DH1) (Homo sapiens (Human), UniProt P29597); assay: Tyk2 Radioactive Kinase Assay; assay type: biochemical; details: for inhibition at 10 µM: read-out: Tyk2 JH1% Inhibition @ 10 μM
# Chain of Tyk2 kinase domain (DH1) (P29597 897-1176): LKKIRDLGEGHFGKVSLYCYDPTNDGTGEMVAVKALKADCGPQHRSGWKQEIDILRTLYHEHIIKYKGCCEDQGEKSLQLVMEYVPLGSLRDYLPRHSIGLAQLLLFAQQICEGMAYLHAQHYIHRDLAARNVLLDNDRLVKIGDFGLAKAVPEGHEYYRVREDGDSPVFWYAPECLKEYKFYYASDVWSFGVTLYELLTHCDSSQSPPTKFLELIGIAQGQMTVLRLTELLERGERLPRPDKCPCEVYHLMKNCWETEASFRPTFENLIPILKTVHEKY
# In short: as §1
# [3] = target: human TYK2 (JH2domain-pseudokinase) (Homo sapiens (Human), UniProt P29597); assay: TYK2 JH2 Domain Binding Assay (KINOMEscan)
# Chain of human TYK2 (JH2domain-pseudokinase) (P29597 556-888): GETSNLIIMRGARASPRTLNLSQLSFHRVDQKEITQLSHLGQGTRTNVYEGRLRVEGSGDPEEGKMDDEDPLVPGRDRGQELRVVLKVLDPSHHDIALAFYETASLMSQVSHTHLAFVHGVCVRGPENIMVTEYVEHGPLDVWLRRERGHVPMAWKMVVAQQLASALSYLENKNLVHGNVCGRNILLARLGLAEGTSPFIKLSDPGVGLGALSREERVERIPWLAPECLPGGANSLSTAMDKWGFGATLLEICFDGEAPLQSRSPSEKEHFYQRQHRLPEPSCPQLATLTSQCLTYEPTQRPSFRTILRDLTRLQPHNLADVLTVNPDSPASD
# In short: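 Displacement of a DNA-tagged TYK2 JH2 fusion (human, aa G556–D888, HEK293 extract, <0.1 nM) from ligand-coated beads over 1 h at RT; binding buffer PBS/0.05% Tween 20/10 mM DTT/0.1% BSA.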
# Chain of JAK2 kinase domain (JH1) (O60674 849-1124): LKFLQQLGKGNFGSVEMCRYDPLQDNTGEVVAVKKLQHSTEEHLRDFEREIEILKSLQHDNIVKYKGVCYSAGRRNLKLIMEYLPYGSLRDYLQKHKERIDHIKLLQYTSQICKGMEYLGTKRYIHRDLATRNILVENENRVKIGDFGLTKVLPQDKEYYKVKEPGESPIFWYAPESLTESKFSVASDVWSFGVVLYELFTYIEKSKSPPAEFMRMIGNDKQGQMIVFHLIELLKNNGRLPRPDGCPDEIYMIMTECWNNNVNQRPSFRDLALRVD
Structure (SMILES),"inhibition at 10 µM ([1]; 10 μM compound, 10 μM ATP) [%]","inhibition at 10 µM ([2]; 10 μM compound, 10 μM ATP) [%]",Kd [3] [nM],"inhibition at 10 µM ([1]; compound at 10 μM, ATP 10 μM) [%]","inhibition at 10 µM ([2]; compound at 10 μM, ATP 10 μM) [%]","JAK2 JH1% Inhibition @ 10 μM ([1]; compound at 10 μM, ATP 10 μM)","Tyk2 JH1% Inhibition @ 10 μM ([2]; compound at 10 μM, ATP 10 μM)"
CNc1cc(Nc2cccn(-c3ncc(C)s3)c2=O)nc2c(C(=O)N[C@H]3CC[C@H]3O)cnn12 [I-1072],< 50,< 50,< 0.2,–,–,–,–
CNc1cc(Nc2cccn([C@H]3CCC[C@@H](OC)C3)c2=O)nc2c(C(=O)N[C@H]3CC[C@@H]3OC)cnn12 [I-1125],< 50,< 50,> 10,–,–,–,–
"CNc1cc(Nc2cccn(C3CCCCC3)c2=O)nc2c(C(=O)N[C@H]3COC[C@H]3O)cnn12 (stereo in doubt) [I-1112, 5-((1-cyclohexyl-2-oxo-1,2-dihydropyridin-3-yl)amino)-N-(4-hydroxytetrahydrofuran-3-yl)-7-(methylamino)pyrazolo[1,5-a]pyrimidine-3-carboxamide]",< 50,< 50,0.2 to 1,–,–,–,–
CNc1cc(Nc2cccn(-c3ccnc(C)n3)c2=O)nc2c(C(N)=O)cnn12 [I-51],–,–,0.2 to 1,< 50,< 50,–,–
CNc1cc(Nc2cccn(CCOC3CC3)c2=O)nc2c(C(=O)N[C@@H]3CC[C@H]3O)cnn12 [I-513],–,–,< 0.2,–,–,A (percent inhibition at 10 μM lower than 50),A (percent inhibition at 10 μM lower than 50)
"CNc1cc(-c2cn(C3CC3)c3ncccc23)nc2c(C(=O)N[C@@H]3CC[C@@H]3O)cnn12 [I-1081, 5-(1-cyclopropyl-1H-pyrrolo[2,3-b]pyridin-3-yl)-N-((1R,2S)-2-hydroxycyclobutyl)-7-(methylamino)pyrazolo[1,5-a]pyrimidine-3-carboxamide]",< 50,< 50,0.2 to 1,–,–,–,–
"CNc1cc(Nc2cccn(-c3ccccn3)c2=O)nc2c(C(=O)NCC(C)(C)CO)cnn12 [I-683, N-(3-hydroxy-2,2-dimethylpropyl)-7-(methylamino)-5-((2-oxo-2H-[1,2′-bipyridin]-3-yl)amino)pyrazolo[1,5-a]pyrimidine-3-carboxamide]",–,–,< 0.2,< 50,< 50,–,–
"CNc1cc(Nc2cccn(C3CCN(CCC#N)CC3)c2=O)nc2c(C(=O)NC3CC3)cnn12 [I-652, 5-((1-(1-(2-cyanoethyl)piperidin-4-yl)-2-oo-1,2-dihydropyridin-3-yl)amino)-N-cyclopropyl-7-(methylamino)pyrazolo[1,5-a]pyrimidine-3-carboxamide]",–,–,< 0.2,< 50,< 50,–,–
CNc1cc(Nc2cccnc2OC(F)(F)F)nc2c(C(=O)NC3COC3)cnn12 [I-92],–,–,> 10,< 50,< 50,–,–
CNc1cc(Nc2cc(F)cn(-c3nn(C)cc3C)c2=O)nc2c(C(=O)N[C@@H]3C[C@@H]3F)cnn12 [I-416],–,–,> 10,< 50,< 50,–,–
CNc1cc(Nc2cc(Cl)cn(C3CCOCC3)c2=O)nc2c(C(=O)N[C@@H]3CC[C@@H]3O)cnn12 [I-713],–,–,< 0.2,< 50,< 50,–,–
CNc1cc(Nc2cccnc2OC(CO)CO)nc2c(C(=O)N[C@H]3C[C@H]3F)cnn12 [I-200],–,–,0.2 to 1,< 50,< 50,–,–
CNc1cc(Nc2cccn([C@@H]3CCN(C)C[C@@H]3F)c2=O)nc2c(C(=O)NC3CC3)cnn12 [I-688],–,–,< 0.2,< 50,< 50,–,–
CNc1cc(Nc2cccn([C@H]3C[C@@H]3F)c2=O)nc2c(C(=O)NC3CC3)cnn12 [I-867],< 50,< 50,< 0.2,–,–,–,–
CNc1cc(Nc2cccn([C@H]3CC[C@H](OC)CC3)c2=O)nc2c(C(=O)N[C@H]3COC[C@H]3O)cnn12 [I-832],< 50,< 50,1 to 10,–,–,–,–
CNc1cc(-c2nn(C3CCOC3)c3ncccc23)nc2c(C(=O)NC3CC3)cnn12 (stereo not drawn) [I-443],–,–,0.2 to 1,< 50,< 50,–,–
